# Assay results as given in patent publication US10031127B2, “Method for separating aggregates of malignant cells and aggregates from stromal cells of a malignant tumour tissue sample” (Flacod GmbH, priority 2012, dated 2018).
# What was measured:
# [1] = system: clusters of malignant cells and/or stromal cell clusters of malignant lung tumors (fractionated and unfractionated digestion products); assay: chemosensitivity to cisplatin, colony formation on ECM-coated culture plates; assay type: cell-based; conditions: 6000 nM cisplatin, 3 days incubation, most of the fractionated and unfractionated digestion products
# Method: (§1) Samples were freshly resected from malignant lung tumors of various histologies, then purified and minced. Tumor tissue samples of 5 to 10 mg per 1 mL were suspended in RPMI 1640 culture medium with an FBS content of 10%. These suspensions were subjected to a collagenase digestion, preferably using Clostridium histolyticum collagenase (230 CDU/mL) for a period of 4 to 5 hours at 36° C. to 37° C., preferably at 36.5° C. Next the digested product was centrifuged at 50×g, the supernatant was discarded and the pellet was dissolved and resuspended in 1 mL fresh culture medium. Each test preparation was transferred to a Petri dish and adjusted with culture medium to a concentration corresponding to 5 to 10 mg tumor sample wet weight per 1 mL culture medium.
# (§2) The cell suspension of each test preparation (test run) was picked up with a 1 mL pipette tip (another aspiration device can also be used) and then discharged again, 4 to 5 times in succession, and thereby subjected to a treatment with hydrodynamic shearing forces. Next, with the help of an inverse microscope equipped with a phase contrast lens system, cell clusters of phenotypically the same cells were detected and each was transferred to a separate culture vessel using injection cannulas no. 23 (diameter 0.6 mm, length 60-80 mm) attached to 2 mL injection syringes. […]
# [2] = system: isolated stromal cell clusters of malignant lung tumors; assay: chemosensitivity to cisplatin, isolated stromal cell clusters; assay type: cell-based; conditions: isolated microscopically identified stromal cell clusters, in the absence of malignant cells; 3 days, 0-6000 nM cisplatin
# Method: as §1, §2
smiles,measurement,setting,value
N.N.[Cl][Pt][Cl] [cisplatin],colony formation ex vivo in the presence of cisplatin,[1],capable of forming colonies ex vivo even in the presence of 6000 nM cisplatin
same,cisplatin resistance of stromal cell clusters,[2],often have cisplatin resistance even in the absence of malignant cells
